Article PMC8514817, “De Novo Design of Antimicrobial Peptides With a Special Charge Pattern and Their Application in Combating Plant Pathogens” (Frontiers in Plant Science, 2021)
Converted amounts (≈) assume the structure as drawn. Where two headings read alike, the source gives them in different places. Where a SMILES comes first, the peptide text is derived from it. The star is where a group is joined. Palmitoyl = CCCCCCCCCCCCCCCC(=O)*; Myristoyl = CCCCCCCCCCCCCC(=O)*

Experiments:
Cgl FST02 = conditions: for MIC: spores, 96 h; for MIC / MBC/MFC / MFC: up to 32 μg/ml; for MBC/MFC / MFC: spotted on PD plate 24~72 h
[1] = test system: Pectobacterium carotovorum subsp. carotovorum (Pcc); assay: Plant disease response, Pcc infection of tomato L390 leaves; assay type: in vivo, Solanum lycopersicum; conditions: crude peptide 16 μg/ml mixed with Pcc, detached wounded tomato L390 leaves, 16–28 h post-inoculation, vs water
Rs Pss190 = conditions: Table 5, minimal medium, crude peptides, up to 32 μg/ml; for MIC: 96 h; for MBC/MFC: spotted on rich agar 48 h
Rs = assay type: cell-based, Ralstonia solanacearum; conditions: crude peptide, 5 μl of 64 μg/ml in 20 μl, bacteria OD600=0.4 in water, 2 h, confocal microscopy
Botrytis cinerea (Bc) [2] = assay: Plant disease response, Bc infection of tomato L390 leaves; assay type: in vivo, Solanum lycopersicum; conditions: crude peptide 16 μg/ml mixed with Bc spores (10^4 spores/ml), 47–70 h post-inoculation, vs water
Eco = assay type: cell-based, Escherichia coli
Bc = conditions: for MIC: spores, 96 h; for MIC / MBC/MFC / MFC: up to 32 μg/ml; for MBC/MFC / MFC: spotted on PD plate 24~72 h
[3] = test system: Pectobacterium carotovorum subsp. carotovorum (Pcc); assay: Plant disease response, Pcc infection of Arabidopsis Col0 leaves; assay type: in vivo, Arabidopsis thaliana; conditions: crude peptide 16 μg/ml mixed with Pcc, wounded leaves of Arabidopsis Col0, 16–28 h post-inoculation, vs water
Rs Pss4 = conditions: Table 5, minimal medium, crude peptides, up to 32 μg/ml; for MIC: 96 h; for MBC/MFC: spotted on rich agar 48 h
Ech = conditions: up to 32 μg/ml
Botrytis cinerea (Bc) [4] = assay: Plant disease response, Bc infection of Arabidopsis Col0 leaves; assay type: in vivo, Arabidopsis thaliana; conditions: crude peptide 16 μg/ml mixed with Bc spores (10^5 spores/ml), Arabidopsis Col0 leaves, 47–70 h post-inoculation, vs water
Pcc = conditions: up to 32 μg/ml
Eco DH5α [5] = conditions: 48 h
Xev Xvt28 [6] = conditions: 48 h
[7] = test system: Ralstonia solanacearum (Rs); assay type: cell-based; conditions: at the highest peptide concentration (32μg/ml) tested; data not shown; before the tests in minimal media
Xoo Xoo28 = conditions: Table 4, rich medium, up to 32 μg/ml
Pss B728a = conditions: Table 4, rich medium, up to 32 μg/ml
Pst DC3000 = conditions: Table 4, rich medium, up to 32 μg/ml
Xev Xvt28 [8] = conditions: 24 h
Eco DH5α [9] = conditions: DH5α, 24 h
[10] = Table 5, minimal (CD) medium, crude peptides
[11] = Table 5, minimal medium, crude peptides, 96 h
[12] = Table 5, minimal medium, crude peptides, spotted on rich agar 48 h
[13] = at the highest peptide concentration (32μg/ml) tested, data not shown, before the tests in minimal media
[14] = spotted on rich agar 48 h, no colony
[15] = Table 7, rich media, spotted on rich agar 48 h

With `CCCCCCCCCCCCCC(=O)N[C@@H](Cc1c[nH]c2ccccc12)C(=O)N[C@@H](CCCCN)C(=O)N[C@@H](CCCCN)C(=O)N[C@@H](CC(C)C)C(=O)N[C@@H](CCCCN)C(=O)N[C@@H](CCCCN)C(=O)N[C@@H](CC(C)C)C(=O)N[C@@H](CC(C)C)C(=O)N[C@@H](CCCCN)C(=O)N[C@@H](CCCCN)C(=O)N[C@@H](CC(C)C)C(=O)N[C@@H](CCCCN)C(=O)N[C@@H](CCCCN)C(=O)N[C@@H](CC(C)C)C(N)=O` [pepD2M] (Myristoyl-WKKLKKLLKKLKKL-NH2) the MIC (Cgl FST02; [10]) was 8 µg/mL (≈ 3.99 µM), the MBC/MFC (Cgl FST02; [10]) was 16 µg/mL (≈ 7.98 µM) and the MIC (Cgl FST02; Table 6, minimal media) was 16 µg/mL (≈ 7.98 µM). The MFC (Cgl FST02; Table 6, minimal media) was 16 µg/mL (≈ 7.98 µM), the “size of disease lesions caused by Pcc, tomato” value (from here on “size … tomato”) [1] was “significantly reduced the sizes of the disease lesions” and the MIC (Rs Pss190) was 8 µg/mL (≈ 3.99 µM). The MBC/MFC (Rs Pss190) was 8 µg/mL (≈ 3.99 µM), the “membranolytic effect (SYTOX Green staining)” value (from here on “membranolytic effect”) (Rs) was “significant membranolytic effect” and the “development of the lesion caused by Bc, tomato” value (shortened to “development … tomato”) (Botrytis cinerea (Bc) [2]) was “decreased the development of the lesion”. The “membranolytic effect” value (Eco) was “significant membranolytic effect”, the MIC (Bc; [10]) was 16 µg/mL (≈ 7.98 µM) and the MBC/MFC (Bc; [10]) was 16 µg/mL (≈ 7.98 µM). The MIC (Bc; Table 6, minimal media) was 16 µg/mL (≈ 7.98 µM), the MFC (Bc; Table 6, minimal media) was 32 µg/mL (≈ 16 µM) and the “size of disease lesions caused by Pcc, Arabidopsis” value (from here on “size … Arabidopsis”) [3] was “significantly reduced the sizes of the disease lesions”. It also gave an MIC (Rs Pss4) of 8 µg/mL (≈ 3.99 µM), an MBC/MFC (Rs Pss4) of 8 µg/mL (≈ 3.99 µM) and an MIC (Ech; [11]) of 4 µg/mL (≈ 2 µM). The MBC/MFC (Ech; [12]) was 8 µg/mL (≈ 3.99 µM), the “development of the lesion caused by Bc, Arabidopsis” value (shortened to “development … Arabidopsis”) (Botrytis cinerea (Bc) [4]) was “decreased the development of the lesion” and the MIC (Pcc; [11]) was 4 µg/mL (≈ 2 µM). The MBC/MFC (Pcc; [12]) was 4 µg/mL (≈ 2 µM).
Work on `CCCCCCCCCCCCCCCC(=O)N[C@@H](Cc1c[nH]c2ccccc12)C(=O)N[C@@H](CCCCN)C(=O)N[C@@H](CCCCN)C(=O)N[C@@H](CC(C)C)C(=O)N[C@@H](CCCCN)C(=O)N[C@@H](CCCCN)C(=O)N[C@@H](CC(C)C)C(=O)N[C@@H](CC(C)C)C(=O)N[C@@H](CCCCN)C(=O)N[C@@H](CCCCN)C(=O)N[C@@H](CC(C)C)C(=O)N[C@@H](CCCCN)C(=O)N[C@@H](CCCCN)C(=O)N[C@@H](CC(C)C)C(N)=O` [pepD2P] (Palmitoyl-WKKLKKLLKKLKKL-NH2) yielded an MIC (Cgl FST02; Table 6, minimal media) of 8 µg/mL (≈ 3.94 µM), an MFC (Cgl FST02; Table 6, minimal media) of 8 µg/mL (≈ 3.94 µM) and an MIC (Bc; Table 6, minimal media) of 8 µg/mL (≈ 3.94 µM). It also gave an MFC (Bc; Table 6, minimal media) of 8 µg/mL (≈ 3.94 µM).
In the case of `CCCCCCCCCCCCCC(=O)N[C@@H](Cc1c[nH]c2ccccc12)C(=O)N[C@@H](CCCCN)C(=O)N[C@@H](CCCCN)C(=O)N[C@@H](CC(C)C)C(=O)N[C@@H](CCCCN)C(=O)N[C@@H](CCCCN)C(=O)N[C@@H](CC(C)C)C(=O)N[C@@H](CC(C)C)C(=O)N[C@@H](CCCCN)C(=O)N[C@@H](CCCCN)C(=O)N[C@@H](CC(C)C)C(N)=O` [pepD3M] (Myristoyl-WKKLKKLLKKL-NH2), the MIC (Cgl FST02; [10]) is reported as 8 µg/mL (≈ 4.89 µM), the MBC/MFC (Cgl FST02; [10]) is reported as 8 µg/mL (≈ 4.89 µM) and the “size … tomato” value [1] is reported as “significantly reduced the sizes of the disease lesions”. The MIC (Rs Pss190) was 16 µg/mL (≈ 9.78 µM), the MBC/MFC (Rs Pss190) was 16 µg/mL (≈ 9.78 µM) and the “development … tomato” value (Botrytis cinerea (Bc) [2]) was “decreased the development of the lesion”. For the same compound, the MIC (Bc; [10]) was 4 µg/mL (≈ 2.45 µM), the MBC/MFC (Bc; [10]) was 8 µg/mL (≈ 4.89 µM) and the “size … Arabidopsis” value [3] was “significantly reduced the sizes of the disease lesions”. For the same compound, the MIC (Rs Pss4) was 8 µg/mL (≈ 4.89 µM), the MBC/MFC (Rs Pss4) was 16 µg/mL (≈ 9.78 µM) and the MIC (Ech; [11]) was 4 µg/mL (≈ 2.45 µM). For the same compound, the MBC/MFC (Ech; [12]) was 8 µg/mL (≈ 4.89 µM), the “development … Arabidopsis” value (Botrytis cinerea (Bc) [4]) was “decreased the development of the lesion” and the MIC (Pcc; [11]) was 4 µg/mL (≈ 2.45 µM). For the same compound, the MBC/MFC (Pcc; [12]) was 4 µg/mL (≈ 2.45 µM).
With Ac-WKKIKKIIKKIKKI-NH2 [pepI2] the MBC (Eco DH5α [5]) was 4 µg/mL and the MIC (Eco DH5α [5]) was 4 µg/mL.
With Ac-WKKLKKLLKKL-NH2 [pepD3] the MIC (Cgl FST02; [10]) was “– (“–” indicates that no antimicrobial activity was detected in minimal media at the highest concentration (32μg/ml) of crude peptides that was tested in this study.)”, the MBC/MFC (Cgl FST02; [10]) was “– (“–” indicates that no antimicrobial activity was detected in minimal media at the highest concentration (32μg/ml) of crude peptides that was tested in this study.)” and the antimicrobial activity (Cgl FST02; [13]) was “did not have detectable antimicrobial activity”. For the same compound, the “size … tomato” value [1] was “did not detectably inhibit the diseases”, the MIC (Rs Pss190) was “– (“–” indicates that no antimicrobial activity was detected in minimal media at the highest concentration (32μg/ml) of crude peptides that was tested in this study.)” and the MBC/MFC (Rs Pss190) was “– (“–” indicates that no antimicrobial activity was detected in minimal media at the highest concentration (32μg/ml) of crude peptides that was tested in this study.)”. The MBC (Xev Xvt28 [6]) was 4 µg/mL, the MIC (Xev Xvt28 [6]) was 4 µg/mL and the MBC (Eco DH5α [5]) was 16 µg/mL. For the same compound, the MIC (Eco DH5α [5]) was 8 µg/mL, the antimicrobial activity [7] was “did not have detectable antimicrobial activity” and the “membranolytic effect” value (Rs) was “significant membranolytic effect”. It also gave an MIC (Xoo Xoo28; 48 h, no visible growth) of 4 µg/mL, an MBC (Xoo Xoo28; [14]) of 4 µg/mL and an MIC (Pss B728a; 48 h, no visible growth) of 8 µg/mL. For the same compound, the MBC (Pss B728a; [14]) was 16 µg/mL, the “development … tomato” value (Botrytis cinerea (Bc) [2]) was “did not detectably inhibit the diseases” and the “membranolytic effect” value (Eco) was “significant membranolytic effect”. For the same compound, the MIC (Bc; [10]) was “– (“–” indicates that no antimicrobial activity was detected in minimal media at the highest concentration (32μg/ml) of crude peptides that was tested in this study.)”, the MBC/MFC (Bc; [10]) was “– (“–” indicates that no antimicrobial activity was detected in minimal media at the highest concentration (32μg/ml) of crude peptides that was tested in this study.)” and the antimicrobial activity (Bc; [13]) was “did not have detectable antimicrobial activity”. The MIC (Pst DC3000; 48 h, no visible growth) was 8 µg/mL, the MBC (Pst DC3000; [14]) was 16 µg/mL and the “size … Arabidopsis” value [3] was “did not detectably inhibit the diseases”. For the same compound, the MIC (Rs Pss4) was “– (“–” indicates that no antimicrobial activity was detected in minimal media at the highest concentration (32μg/ml) of crude peptides that was tested in this study.)”, the MBC/MFC (Rs Pss4) was “– (“–” indicates that no antimicrobial activity was detected in minimal media at the highest concentration (32μg/ml) of crude peptides that was tested in this study.)” and the MIC (Ech; [11]) was 32 µg/mL. The “development … Arabidopsis” value (Botrytis cinerea (Bc) [4]) was “did not detectably inhibit the diseases”, the MIC (Pcc; Table 4, rich medium, 48 h, no visible growth) was 8 µg/mL and the MIC (Pcc; [11]) was 8 µg/mL. The MBC/MFC (Pcc; [12]) was 16 µg/mL.
With Ac-WKKVKKVVKKVKKV-NH2 [pepV2] the MBC (Eco DH5α [5]) was 32 µg/mL, the MIC (Eco DH5α [5]) was 32 µg/mL and the MIC (Ech; Table 7, rich media, 48 h) was “– (“–” indicates that no antimicrobial activity was detected in rich media at the highest peptide concentration (32μg/ml) that was tested in this study.)”. For the same compound, the MBC (Ech; [15]) was “– (“–” indicates that no antimicrobial activity was detected in rich media at the highest peptide concentration (32μg/ml) that was tested in this study.)”, the MIC (Pcc; Table 7, rich media, 48 h) was “– (“–” indicates that no antimicrobial activity was detected in rich media at the highest peptide concentration (32μg/ml) that was tested in this study.)” and the MBC (Pcc; [15]) was “– (“–” indicates that no antimicrobial activity was detected in rich media at the highest peptide concentration (32μg/ml) that was tested in this study.)”.
For Ac-WKLKLKLKLKLKLKLKLK-NH2 [pepE], the IC50 (Xev Xvt28 [8]) was 2 µg/mL and the IC50 (Eco DH5α [9]) was 10 µg/mL.
Ac-WKLLKKLLKKLKKLLKKL-NH2 [pepC] was tested, and the IC50 (Xev Xvt28 [8]) was 10 µg/mL and the IC50 (Eco DH5α [9]) was 10 µg/mL.
With Stearyl-WKKLKKLLKKLKKL-NH2 [pepD2S] the MIC (Cgl FST02; Table 6, minimal media) was “– (“–” indicates that no antimicrobial activity was detected in minimal media at the highest peptide concentration (32μg/ml) that was tested in this study.)”, the MFC (Cgl FST02; Table 6, minimal media) was “– (“–” indicates that no antimicrobial activity was detected in minimal media at the highest peptide concentration (32μg/ml) that was tested in this study.)” and the MIC (Bc; Table 6, minimal media) was “– (“–” indicates that no antimicrobial activity was detected in minimal media at the highest peptide concentration (32μg/ml) that was tested in this study.)”. The MFC (Bc; Table 6, minimal media) was “– (“–” indicates that no antimicrobial activity was detected in minimal media at the highest peptide concentration (32μg/ml) that was tested in this study.)”.
